Data: article PMC10525927, “First Generation of Antioxidant Precursors for Bioisosteric Se-NSAIDs: Design, Synthesis, and In Vitro and In Vivo Anticancer Evaluation” (Antioxidants, 2023)

Columns and labels:
[1] = test system: T-47D breast cancer cells; experiment: MTT cell viability assay, T-47D; format: cell-based; conditions: 48 h, mean ± SD
Description: (§1) The cell lines were purchased from the American Type Culture Collection (ATCC). The cancer cell lines DU-145, PC-3, T-47D, MDA-MB-231, H1299, and A549, and the non-tumorigenic cells (184B5 and BEAS-2B), were maintained in RPMI 1640 medium (Gibco, Alcobendas, Madrid, Spain) supplemented with 10% fetal bovine serum (FBS; Gibco) and 1% antibiotics (10.00 units/mL penicillin and 10.00 mg/mL streptomycin; Gibco). Colon cancer cells HT-29 and HCT-116 were cultured in McCoy’s 5A medium (Gibco) supplemented with 10% fetal bovine serum (FBS; Gibco) and 1% antibiotics (10.00 units/mL penicillin and 10.00 mg/mL streptomycin; Gibco). Cells were maintained in tissue culture flasks at 37 °C and 5% CO2. The culture medium was replaced every three days.
(§2) The antiproliferative activity and selectivity in vitro of the Se-NSAID derivatives were determined by the (3-(4,5-dimethylthiazol-2-yl)-2,5-diphenyltetrazolium bromide) (MTT) assay. Compounds were dissolved in DMSO at a concentration of 0.01 M and serial dilutions were prepared. The Se-NSAID derivatives were tested at seven concentrations ranging between 1 and 100 µM in the colon (HT-29 and HCT-116), prostate (DU-145 and PC-3), breast (MDA-MB-231 and T-47D), and lung (H1299 and A549) cancer cell lines. The non-tumorigenic breast (184B5) and lung (BEAS-2B) cell lines were also tested to assess the selectivity of the compounds following the same procedure. A total of 1 × 10^4 cells were seeded per well in 96-well plates and incubated at 5% CO2 and 37 °C for 24 h. Then, cells were treated with either DMSO or increasing concentrations of the corresponding Se-NSAID derivatives for 48 h. A volume of 20 µL of MTT (5 mg/mL) was added to each well 2.5 h before the termination point. At the end of the experiment, the medium was removed, and the resultant formazan crystals formed by mitochondrial reduction of MTT were dissolved in 50 µL of DMSO. Absorbance was measured at 550 nm. IC50, GI50, TGI, and LC50 values were calculated using OriginPro version 8.5.1. software by nonlinear curve fitting. Selectivity indexes (SI) were calculated as the ratio of the IC50 values determined for the nonmalignant and the tumoral cells in the breast (IC50 (184B5)/IC50 (MDA-MB-231) and IC50 (184B5)/IC50 (T-47D)) and lung (IC50 (BEAS-2B)/IC50 (H1299) and IC50 (BEAS-2B)/IC50 (A549)) cell lines. Data were obtained from at least three independent experiments performed in triplicates.

[2] = test system: MDA-MB-231 breast cancer cells; experiment: MTT cell viability assay, MDA-MB-231; format: cell-based; conditions: mean ± SD
Description: as §1, §2

H1299 lung cancer cells = experiment: MTT cell viability assay, H1299; format: cell-based; conditions: mean ± SD
Description: as §1, §2

[3] = test system: HCT-116 colon cancer cells; experiment: MTT cell viability assay, HCT-116; format: cell-based; conditions: mean ± SD
Description: as §1, §2

[4] = test system: HCT-116 colon cancer xenograft; experiment: Tumor growth inhibition on HCT-116 colon cancer xenograft model; format: in vivo; conditions: 10 mg/Kg IP
Description: Female mice of 4–5 weeks of age (The Jackson Laboratory, Bar Harbor, ME, USA) were kept on the daily cycle of 12 h light/dark and received food and water ad libitum throughout the studies. All animal procedures were performed following the National Institutes of Health (NIH) Guide for the Care and Use of Laboratory Animals and protocols were approved by the Animal Care and Use Committee of the Penn State College of Medicine.
All mice were housed in quarantine for one week prior to the inoculation of the cancer cells. Female nude mice (4–5 weeks old) were subcutaneously injected (100 µL of PBS/flank) with 2.5 × 10^6 HCT-116 colon cancer cells in each flank. Two weeks after inoculation, mice were sorted randomly into treatment and control groups (five mice/group) such that the mean tumor volumes were similar between groups. […] Mice that were injected with only DMSO (vehicle) were used as negative controls. The body weight of animals and the tumor volume were monitored thrice weekly. Tumor volumes were calculated using the formula (L × W^2)/2, wherein L and W are the length and width of the tumor mass measured with a vernier caliper, respectively. At the end of the experiment, mice were sacrificed by euthanizing the animals by CO2 asphyxiation, and the tumors were excised and weighed. Inspection of major morphological changes in organs was also carried out. The antitumor effect was assessed by the tumor growth inhibition (TGI) and the relative increment ratio (T/C) parameters in the aspects of tumor volume and tumor weight, respectively. The TGI was calculated using the following formula: TGI (%) = [1 − (T − T0)/(C − C0)] × 100, wherein T and C are the final tumor volumes measured at the end of the treatment of compound-treated mice and vehicle-treated mice, respectively, whereas T0 and C0 are the tumor volumes measured at the beginning of the treatment of compound-treated mice and vehicle-treated mice, respectively. The T/C value was calculated as WT/WC × 100, wherein WT is the mean of tumor weight of the compound-treated mice, and WC is the mean of tumor weight of the vehicle-treated mice.

[5] = DPPH radical scavenging assay
Description: Briefly, the compounds were dissolved at a concentration of 1 mg/mL in absolute methanol, and a dilution was prepared. […] Then, 100 µL of the DPPH solution was added to 100 µL of the compounds’ solution to a final concentration of 0.03 mg/mL or 0.06 mg/mL, and the decolorization of the purple radical to the yellowish reduced form was followed by recording the absorbance at 517 nm. Ascorbic acid (Asc) and Trolox were used as positive controls. Both of them, Asc and Trolox, were purchased from Sigma-Aldrich. Determinations were recorded at eight different time intervals from 0 to 120 min on a BioTeck PowerWave XS spectrophotometer, and the data were collected using KCJunior version 1.41. software. All the measurements were carried out in triplicate. Results are expressed as the percentage of the radical scavenged, calculated using the following formula: % DPPH radical scavenging = [(Acontrol − Asample)/Acontrol] × 100, wherein Acontrol refers to the absorbance of the negative control and Asample refers to the absorbance of the tested compounds.

[6] = in vitro TGI concentration, 48 h, Table S1

CC(C)Cc1ccc(C(C)C(=O)[Se][Se]C(=O)C(C)c2ccc(CC(C)C)cc2)cc1 (centres unmarked) [Compound 5, 2-(4-Isobutylphenyl)propanoic diselenoperoxyanhydride]
LD50 T-47D ([1]; Table S1): 4.2 ± 0.3 µM
IC50 ([1]; Homo sapiens, T47D): 3.8 ± 0.2 µM
GI50 ([1]; Homo sapiens, T47D, Table S1): 1.8 ± 0.4 µM
TGI T-47D ([1]; in vitro TGI concentration, Table S1): 2.7 ± 0.3 µM
IC50 ([2]; Homo sapiens, MDA-MB-231, 48 h): 8.3 ± 2.5 µM
GI50 ([2]; Homo sapiens, MDA-MB-231, 48 h, Table S1): 4.8 ± 1.1 µM
TGI MDA-MB-231 [2, 6]: 7.9 ± 3.8 µM
LD50 H1299 (H1299 lung cancer cells; 48 h, Table S1): 16.5 ± 5.1 µM
IC50 (H1299 lung cancer cells; Homo sapiens, NCI-H1299, 48 h): 9.3 ± 0.6 µM
GI50 (H1299 lung cancer cells; Homo sapiens, NCI-H1299, 48 h, Table S1): 8.1 ± 1 µM
TGI H1299 (H1299 lung cancer cells; [6]): 10.2 ± 1.0 µM
IC50 ([3]; Homo sapiens, HCT-116, 48 h): 9 ± 3 µM
GI50 ([3]; Homo sapiens, HCT-116, 48 h, Table S1): 4.6 ± 1.5 µM
TGI HCT-116 [3, 6]: 10.3 ± 3.8 µM
TGI (tumor growth inhibition, tumor volume) ([4]; HCT-116 subcutaneous xenograft, female nude mice, 23 days of treatment, day 38, vs vehicle): 72%
T/C (relative increment ratio, tumor weight) ([4]; HCT-116 subcutaneous xenograft, female nude mice, end of treatment): 38%
body weight of the mice vs vehicle during treatment ([4]; HCT-116 xenograft mice): slight change
toxicity signs (morphological abnormalities in major organs) ([4]; HCT-116 xenograft mice, end of experiment): no evident toxicity signs
DPPH radical scavenging activity ([5]; highest concentration tested (0.06 mg/mL), by the end of the experiment (120 min)): comparable to those of the positive controls
DPPH radical scavenging activity ([5]; lowest concentration tested (0.03 mg/mL)): 20%
